What was measured:
[1] = target: T1, ΔF508-CFTR (Homo sapiens, UniProt P13569, DEL508-508); experiment: CFTR cell surface levels using HRP-tagged ΔF508-CFTR expressing CFBE cells, in the presence of a co-corrector; format: cell-based; details: HRP-tagged ΔF508-CFTR expressing CFBE cells, in the presence of 3 μM co-corrector; for EC50: read-out: EC50
T1 construct: host or cells: CFBE41o-, doxycycline-inducible
Procedure, shortened: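 Cells were seeded with 0.5 μg/mL doxycycline and held 68 h at 37 °C. Test compounds plus 3 μM co-corrector (final 0.1% DMSO) were then added for 20 h at 33 °C. Washed cells received HRP substrate, and luminescence was normalized between DMSO and 3 μM co-corrector controls.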

[2] = target: T1, ΔF508-CFTR; experiment: CFTR cell surface levels using HRP-tagged ΔF508-CFTR expressing CFBE cells, intrinsic corrector capacity; format: cell-based; details: HRP-tagged ΔF508-CFTR CFBE41o- cells, compounds alone (intrinsic corrector capacity), 20 hours at 33° C.; for % Activation: positive control 3 μM corrector; for EC50: read-out: EC50
Procedure, shortened: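 Here the cells express ΔF508-CFTR with horseradish peroxidase inserted in extracellular loop 4, so only rescued channel at the surface gives luminescent signal. Compounds act on their own, 20 h at the reduced temperature of 33 °C; values are percent activity relative to DMSO and a 3 μM corrector.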

T1 sequence (P13569 with tags, fused parts or gaps DEL508-508): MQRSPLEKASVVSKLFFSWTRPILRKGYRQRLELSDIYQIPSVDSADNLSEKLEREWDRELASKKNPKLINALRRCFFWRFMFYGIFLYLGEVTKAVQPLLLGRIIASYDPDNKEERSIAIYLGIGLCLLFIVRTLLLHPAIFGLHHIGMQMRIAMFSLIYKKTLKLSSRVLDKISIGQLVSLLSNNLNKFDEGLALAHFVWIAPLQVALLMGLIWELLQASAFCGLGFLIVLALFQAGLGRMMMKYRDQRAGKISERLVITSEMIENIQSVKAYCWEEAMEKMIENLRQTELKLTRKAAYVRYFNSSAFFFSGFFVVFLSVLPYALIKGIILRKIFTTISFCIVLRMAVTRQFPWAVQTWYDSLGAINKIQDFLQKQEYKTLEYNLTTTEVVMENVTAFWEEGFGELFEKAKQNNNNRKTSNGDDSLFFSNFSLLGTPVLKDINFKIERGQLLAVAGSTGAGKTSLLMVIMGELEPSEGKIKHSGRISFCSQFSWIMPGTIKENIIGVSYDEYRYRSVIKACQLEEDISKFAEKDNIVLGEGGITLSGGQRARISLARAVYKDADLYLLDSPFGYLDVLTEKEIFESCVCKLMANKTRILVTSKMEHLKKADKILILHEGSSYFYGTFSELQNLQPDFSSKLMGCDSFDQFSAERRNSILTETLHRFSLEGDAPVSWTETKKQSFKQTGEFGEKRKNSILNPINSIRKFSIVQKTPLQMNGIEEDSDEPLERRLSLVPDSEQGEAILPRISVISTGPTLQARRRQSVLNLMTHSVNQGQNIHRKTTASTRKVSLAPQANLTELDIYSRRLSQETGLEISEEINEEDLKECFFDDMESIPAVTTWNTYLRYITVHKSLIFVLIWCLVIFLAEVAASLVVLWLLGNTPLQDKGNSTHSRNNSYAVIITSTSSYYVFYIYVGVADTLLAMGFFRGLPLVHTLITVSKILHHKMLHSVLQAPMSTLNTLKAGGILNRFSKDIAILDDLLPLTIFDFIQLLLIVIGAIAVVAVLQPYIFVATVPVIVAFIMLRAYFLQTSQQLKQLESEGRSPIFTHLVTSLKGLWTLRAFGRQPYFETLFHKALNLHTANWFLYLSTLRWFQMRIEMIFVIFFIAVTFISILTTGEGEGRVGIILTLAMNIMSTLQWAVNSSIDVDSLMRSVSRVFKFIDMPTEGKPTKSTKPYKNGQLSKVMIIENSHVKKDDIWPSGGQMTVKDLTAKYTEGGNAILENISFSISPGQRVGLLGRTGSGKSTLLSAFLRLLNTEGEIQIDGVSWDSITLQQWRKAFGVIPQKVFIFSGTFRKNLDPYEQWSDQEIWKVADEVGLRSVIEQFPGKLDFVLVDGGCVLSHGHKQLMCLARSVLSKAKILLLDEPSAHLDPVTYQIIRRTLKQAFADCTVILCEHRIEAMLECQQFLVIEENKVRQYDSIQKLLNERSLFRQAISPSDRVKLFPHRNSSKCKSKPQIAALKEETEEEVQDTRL

Row | SMILES | % Activation [1] | EC50 [1] | % Activation [2] | EC50 [2]
1 | Cc1nn(-c2ccccc2)c2nc(C(=O)O)cc(-c3ccc(N4CCN(C(C)(C)C)CC4)cc3)c12 [compound 60, 4-[4-(4-tert-butylpiperazin-1-yl)phenyl]-3-methyl-1-phenyl-1H-pyrazolo[3,4-b]pyridine-6-carboxylic acid] | 143.1% | > 10 µM | 14.9% | > 10 µM
2 | COc1ccc(-n2nc(C)c3c(-c4ccc(N5CCOCC5)cc4)cc(C(=O)O)nc32)cn1 [compound 61, 1-(6-methoxypyridin-3-yl)-3-methyl-4-[4-(morpholin-4-yl)phenyl]-1H-pyrazolo[3,4-b]pyridine-6-carboxylic acid] | 253.6% | 2.35 µM | 96.05% | 3.34 µM
3 | CC(C)c1nn(C2CCCCC2)c2nc(C(=O)O)cc(-c3cnc(N(C)C)nc3)c12 [compound 62, 1-cyclohexyl-4-[2-(dimethylamino)pyrimidin-5-yl]-3-(propan-2-yl)-1H-pyrazolo[3,4-b]pyridine-6-carboxylic acid] | 349.9% | 1.69 µM | 159.65% | 2.63 µM
4 | CC(C)(O)c1nn(-c2ccccc2)c2nc(C(=O)O)cc(-c3ccc(N4CCOCC4)cc3)c12 [compound 63, 3-(2-hydroxypropan-2-yl)-4-[4-(morpholin-4-yl)phenyl]-1-phenyl-1H-pyrazolo[3,4-b]pyridine-6-carboxylic acid] | 294.35% | 3.34 µM | 108.18% | 3.34 µM
5 | NC(=O)c1nn(-c2ccccc2)c2nc(C(=O)O)cc(-c3ccc(N4CCOCC4)cc3)c12 [compound 64, 3-carbamoyl-4-[4-(morpholin-4-yl)phenyl]-1-phenyl-1H-pyrazolo[3,4-b]pyridine-6-carboxylic acid] | 113.3% | > 10 µM | 3.754% | > 10 µM
6 | Cc1nn(C2CCCCC2)c2nc(C(=O)O)cc(-c3cnc(N4CCOCC4)nc3)c12 [compound 65, 1-cyclohexyl-3-methyl-4-[2-(morpholin-4-yl)pyrimidin-5-yl]-1H-pyrazolo[3,4-b]pyridine-6-carboxylic acid] | 258.2% | 2.31 µM | 103.02% | 3.34 µM
7 | Cc1nn(-c2ccccc2)c2nc(C(=O)O)cc(-c3ccc(N4CCOCC4)c(Br)c3)c12 [compound 66, 4-[3-bromo-4-(morpholin-4-yl)phenyl]-3-methyl-1-phenyl-1H-pyrazolo[3,4-b]pyridine-6-carboxylic acid] | 131.3% | > 10 µM | 13.06% | > 10 µM
8 | CC(C)c1nn(C2CCCC2)c2nc(C(=O)O)cc(-c3cnc(N(C)C)nc3)c12 [compound 67, 1-cyclopentyl-4-[2-(dimethylamino)pyrimidin-5-yl]-3-(propan-2-yl)-1H-pyrazolo[3,4-b]pyridine-6-carboxylic acid] | 280.35% | 1.26 µM | 117.6% | 1.59 µM
9 | CC(C)c1nn(C2CCCOC2)c2nc(C(=O)O)cc(-c3ccc(N4CCOCC4)cc3)c12 (stereo not shown) [compound 68, 4-[4-(morpholin-4-yl)phenyl]-1-(oxan-3-yl)-3-(propan-2-yl)-1H-pyrazolo[3,4-b]pyridine-6-carboxylic acid] | 274.9% | 1.39 µM | 106.65% | 1.74 µM
10 | CC(C)c1nn(C2CCCC2)c2nc(C(=O)O)cc(-c3ccc(N4CCOCC4)cc3)c12 [compound 69, 1-cyclopentyl-4-[4-(morpholin-4-yl)phenyl]-3-(propan-2-yl)-1H-pyrazolo[3,4-b]pyridine-6-carboxylic acid] | 366.8% | 0.993 µM | 150.25% | 0.97 µM
11 | COC(=O)N1CCN(c2ccc(-c3cc(C(=O)O)nc4c3c(C)nn4-c3ccccc3)cc2)CC1 [compound 70, 4-{4-[4-(methoxycarbonyl)piperazin-1-yl]phenyl}-3-methyl-1-phenyl-1H-pyrazolo[3,4-b]pyridine-6-carboxylic acid] | 355.6% | 0.649 µM | 160.8% | 0.91 µM
12 | CC(=O)N1CCC(n2nc(C(C)C)c3c(-c4ccc(N5CCOCC5)cc4)cc(C(=O)O)nc32)CC1 [compound 71, 1-(1-acetylpiperidin-4-yl)-4-[4-(morpholin-4-yl)phenyl]-3-(propan-2-yl)-1H-pyrazolo[3,4-b]pyridine-6-carboxylic acid] | 126.8% | > 10 µM | 17.23% | > 10 µM
13 | Cc1nn(-c2ccccc2)c2nc(C(=O)O)cc(-c3ccc(N4CC(N(C)C)C4)cc3)c12 [compound 72] | 308.1% | 3.34 µM | 91.87% | 2.25 µM
14 | Cc1nn(-c2ccccc2)c2nc(C(=O)O)cc(-c3ccc(N4CC(C)(C)C4)cc3)c12 [compound 73, 4-[4-(3,3-dimethylazetidin-1-yl)phenyl]-3-methyl-1-phenyl-1H-pyrazolo[3,4-b]pyridine-6-carboxylic acid] | 303.9% | 3.25 µM | 110.1% | 3.17 µM
15 | Cc1nn(C2CCCCC2)c2nc(C(=O)O)cc(-c3ccc(N4CCOCC4)nc3)c12 [compound 74, 1-cyclohexyl-3-methyl-4-[6-(morpholin-4-yl)pyridin-3-yl]-1H-pyrazolo[3,4-b]pyridine-6-carboxylic acid] | 257.2% | 1.48 µM | 116.7% | 2.56 µM
16 | Cc1nn(C2CCCCC2)c2nc(C(=O)O)cc(-c3cnc(N(C)C)nc3)c12 [compound 75, 1-cyclohexyl-4-[2-(dimethylamino)pyrimidin-5-yl]-3-methyl-1H-pyrazolo[3,4-b]pyridine-6-carboxylic acid] | 254% | 1.15 µM | 117.1% | 3.13 µM
17 | CC(C)(C)OC(=O)N1CCCC1c1nn(-c2ccccc2)c2nc(C(=O)O)cc(-c3ccc(N4CCOCC4)cc3)c12 (stereo not shown) [compound 76] | 244.2% | 0.43 µM | 117.9% | 0.835 µM
18 | CC(C)c1nn(C2CCCC2)c2nc(C(=O)O)cc(-c3ccc(N4CCOCC4)nc3)c12 [compound 77, 1-cyclopentyl-4-[6-(morpholin-4-yl)pyridin-3-yl]-3-(propan-2-yl)-1H-pyrazolo[3,4-b]pyridine-6-carboxylic acid] | 343.4% | 1.11 µM | 139.5% | 1.17 µM
19 | CC(=O)N1CC(c2nn(-c3ccccc3)c3nc(C(=O)O)cc(-c4ccc(N5CCOCC5)cc4)c23)C1 [compound 78, 3-(1-acetylazetidin-3-yl)-4-[4-(morpholin-4-yl)phenyl]-1-phenyl-1H-pyrazolo[3,4-b]pyridine-6-carboxylic acid] | 132% | > 10 µM | 10.784% | > 10 µM
20 | CC(C)c1nn(-c2ccccc2)c2nc(C(=O)O)cc(-c3cnc(N4CCOCC4)nc3)c12 [compound 79, 4-[2-(morpholin-4-yl)pyrimidin-5-yl]-1-phenyl-3-(propan-2-yl)-1H-pyrazolo[3,4-b]pyridine-6-carboxylic acid] | 256.45% | 5.28 µM | 195.9% | 0.697 µM
21 | CC(C)c1nn(C2CCCCC2)c2nc(C(=O)O)cc(-c3cnc(N4CCOCC4)nc3)c12 [compound 80, 1-cyclohexyl-4-[2-(morpholin-4-yl)pyrimidin-5-yl]-3-(propan-2-yl)-1H-pyrazolo[3,4-b]pyridine-6-carboxylic acid] | 341.92% | 2.93 µM | 184.8% | 0.611 µM
22 | CC(C)c1nn(C2CCCCC2)c2nc(C(=O)O)cc(-c3ccc(N4CCOCC4)nc3)c12 [compound 81, 1-cyclohexyl-4-[6-(morpholin-4-yl)pyridin-3-yl]-3-(propan-2-yl)-1H-pyrazolo[3,4-b]pyridine-6-carboxylic acid] | 398.25% | 0.57 µM | 193.6% | 0.744 µM
23 | Cc1nn(-c2ccccc2)c2nc(C(=O)O)cc(-c3ccc(N4CCN(CCC(F)(F)F)CC4)cc3)c12 [compound 82, 3-methyl-1-phenyl-4-{4-[4-(3,3,3-trifluoropropyl)piperazin-1-yl]phenyl}-1H-pyrazolo[3,4-b]pyridine-6-carboxylic acid] | 335.65% | 0.971 µM | 135.95% | 1.01 µM
24 | CC(C)c1nn(C2CCCC2)c2nc(C(=O)O)cc(-c3ccc(N(C)C)nc3)c12 [compound 83, 1-cyclopentyl-4-[6-(dimethylamino)pyridin-3-yl]-3-(propan-2-yl)-1H-pyrazolo[3,4-b]pyridine-6-carboxylic acid] | 332.65% | 1.05 µM | 142.25% | 1.47 µM
25 | CC(C)c1nn(-c2cccc(N(C)C)c2)c2nc(C(=O)O)cc(-c3cnc(N4CCOCC4)nc3)c12 [compound 84, 1-[3-(dimethylamino)phenyl]-4-[2-(morpholin-4-yl)pyrimidin-5-yl]-3-(propan-2-yl)-1H-pyrazolo[3,4-b]pyridine-6-carboxylic acid] | 541.12% | 0.734 µM | 289.83% | 0.829 µM

From patent publication US9796711B2, “Substituted pyrazolo[3,4-b]pyridin-6-carboxylic acids and method of use” (AbbVie S.àr.l., priority 2015, dated 2017)
